# Where two headings read alike, the source gives them in different places.
# Legend:
# [1] = target: TEM-1 (class A β-lactamase) (Escherichia coli, UniProt P62593); assay: β-Lactamase assay (nitrocefin colour change), TEM-1; format: biochemical; settings: for TEM-1: Table 10, class symbols x/xx/xxx, key not given
# Method: (§1) β-Lactamase Assays (TEM-1, P99, and OXA-10): The activity of the compounds of the invention (inhibitors) toward β-lactamases was evaluated using 96 well plates. The reaction mixture included 10 mM sodium phosphate, pH 7.0, 150 mM sodium chloride, 0.01% Triton X-100, 100 μM nitrocefin, 10 nM of β-lactamases (class A: TEM-1; class C: P99, or class D: OXA-10), and variable concentrations of the inhibitors in a total volume of 100 μL. β-Lactamases were pre-incubated with the compounds at room temperature for 5 minutes, and the assay was initiated by the addition of nitrocefin. The inhibition of the enzyme activity by the compounds was determined by monitoring color change (from yellow to red) of nitrocefin after 20 minutes. Stock solutions of the compounds were prepared in dimethyl sulfoxide (DMSO). No more than 5% DMSO was present in assays, unless noted otherwise. B1aR Assay: The surface domain of B1aR (1 μM) was added to each inhibitor (at various concentrations) in 100 mM sodium phosphate, 50 mM sodium bicarbonate, at pH 7.0. The reaction mixtures were incubated at room temperature for 20 minutes. BOCILLIN FL, a fluorogenic ligand, was added to a concentration of 20 μM in a final volume of 20 μL. The mixtures were incubated at 37° C. for 5 minutes, at which point the reactions were quenched by the addition of 15 μL of the SDS sample buffer (125 mM Tris, 4% SDS, 20% glycerol, 2% 2-mercaptoethanol, pH 6.8), and were boiled for 4 minutes. The samples were loaded onto 15% SDS-PAGE, the gel was developed and scanned using a Storm 840® Fluorimager. The fluorescent bands of BOCILLIN FL-labeled B1aR^S were analyzed by Image Quant 5.2 software. PBP2 Assay: The PBP2 assay was performed according to the methods of Villegas-Esterada et al. (J. Am. Chem. Soc. 2008, 130, 9212-9213).
# [2] = target: P99 (class C β-lactamase) (Enterobacter cloacae, UniProt P05364); assay: β-Lactamase assay (nitrocefin colour change), P99; format: biochemical; settings: for P99: Table 10, class symbols x/xx/xxx, key not given
# Sequence of P99 (class C β-lactamase) (P05364 21-381): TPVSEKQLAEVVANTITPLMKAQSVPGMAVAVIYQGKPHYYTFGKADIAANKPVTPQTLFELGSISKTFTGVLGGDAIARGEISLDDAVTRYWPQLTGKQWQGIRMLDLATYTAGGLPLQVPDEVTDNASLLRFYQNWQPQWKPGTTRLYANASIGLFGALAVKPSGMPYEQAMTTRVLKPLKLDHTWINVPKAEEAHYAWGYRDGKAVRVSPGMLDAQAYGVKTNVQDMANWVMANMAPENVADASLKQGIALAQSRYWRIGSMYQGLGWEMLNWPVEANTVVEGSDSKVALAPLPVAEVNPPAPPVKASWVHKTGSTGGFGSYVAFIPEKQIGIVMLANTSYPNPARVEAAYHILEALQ
# Method: as §1
# [3] = target: OXA-10 (class D β-lactamase) (Pseudomonas aeruginosa, UniProt P14489); assay: β-Lactamase assay (nitrocefin colour change), OXA-10; format: biochemical; settings: for OXA-10: Table 10, class symbols x/xx/xxx, key not given
# Sequence of OXA-10 (class D β-lactamase) (P14489 20-266, species assumed): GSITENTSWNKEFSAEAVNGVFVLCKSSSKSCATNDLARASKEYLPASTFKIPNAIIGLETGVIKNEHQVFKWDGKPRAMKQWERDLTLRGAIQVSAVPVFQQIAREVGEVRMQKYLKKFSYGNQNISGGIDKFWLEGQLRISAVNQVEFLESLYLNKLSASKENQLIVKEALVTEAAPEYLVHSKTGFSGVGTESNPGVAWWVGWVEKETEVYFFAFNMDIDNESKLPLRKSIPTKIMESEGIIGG
# Method: as §1
# [4] = test system: S. aureus NRS11 (Mec^S); assay: MIC against S. aureus NRS11 (Table 13); format: cell-based, Staphylococcus aureus; settings: for MIC: compounds dissolved in DMSO or 1% sodium carbonate
# Method: All recited compounds were dissolved in DMSO or in 1% sodium carbonate and transferred to micro titer plates to final concentrations of 1000 μg/mL.
# [5] = test system: S. aureus NRS100 (Mec^R); assay: MIC against S. aureus NRS100 (Table 14); format: cell-based, Staphylococcus aureus; settings: for MIC: compounds dissolved in DMSO or 1% sodium carbonate
# Method: The recited compounds were dissolved in DMSO or in 1% sodium carbonate and transferred into micro titer plate to final concentration of 1000 μg/mL.
# [6] = Staphylococcus aureus, read-out: MIC
# Sequence of TEM-1 (class A β-lactamase) (P62593 24-286 limits assumed): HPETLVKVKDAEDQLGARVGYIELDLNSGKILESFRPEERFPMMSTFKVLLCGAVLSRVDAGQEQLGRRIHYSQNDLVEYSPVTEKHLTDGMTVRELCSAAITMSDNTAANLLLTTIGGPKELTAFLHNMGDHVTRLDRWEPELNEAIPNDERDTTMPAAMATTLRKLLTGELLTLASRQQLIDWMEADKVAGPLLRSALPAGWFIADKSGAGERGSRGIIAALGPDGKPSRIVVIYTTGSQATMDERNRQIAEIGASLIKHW
smiles,measurement,setting,value
O=C(O)c1c(Cl)c(Cl)c(Cl)c(Cl)c1C(=O)Nc1ccc(OCc2cccc(C(F)(F)F)c2)c(Cl)c1 [Compound 389],IC50,[1],4.5 ± 0.4 µM
same,TEM-1,[1],xxx
same,P99,[2],xxx
same,IC50,"[2]; nitrocefin 100 μM, 10 nM enzyme, 5 min pre-incubation, read-out: IC50s P99",20.2 ± 3 µM
same,OXA-10,[3],xxx
same,IC50,"[3]; nitrocefin 100 μM, 10 nM enzyme, 5 min pre-incubation, read-out: IC50s OXA-10",44.2 ± 3.4 µM
same,MIC,[4]; [6],< 8 µg/mL
same,inhibitory properties (in words),[4]; Table 13,significant inhibitory properties
same,MIC,[5]; [6],< 8 µg/mL
same,inhibitory activity (in words),[5]; Table 14,significant inhibitory activity
O=C(O)c1cccc([N+](=O)[O-])c1C(=O)Nc1ccc(OCc2cccc(OC(F)(F)F)c2)c(Cl)c1 [Compound 421],MIC,[5]; [6],250 µg/mL
O=C1C2=C(SCCS2)C(=O)N1C(CO)[C@H](O)c1ccccc1 (stereo partly drawn) [Compound 138],TEM-1,[1],xxx
same,P99,[2],xxx
CCCCOC(=O)c1ccc(NC(=O)N(C)c2ccccc2C(=O)O)cc1 [Compound 326],MIC,[4],"2,000 μg/mL"
same,MIC,[5],"2,000 μg/mL"
N#Cc1cccc(NC(=O)c2c(Br)c(Br)c(Br)c(Br)c2C(=O)[O-])c1.[Na+] [Compound 201],TEM-1,[1],xx
same,P99,[2],xxx
same,OXA-10,[3],xx
COCCOCCOc1ccc(NC(=O)c2c(Br)c(Br)c(Br)c(Br)c2C(=O)O)cn1 [Compound 403],MIC,[4],">2,000 μg/mL"
same,MIC,[5],">2,000 μg/mL"
CCCCCCCCOc1ccc(NC(=O)c2c(F)c(F)c(F)c(F)c2C(=O)O)cn1 [Compound 344],MIC,[4]; [6],256 µg/mL
same,MIC,[5]; [6],256 µg/mL
O=C(O)c1c(F)c(F)c(F)c(F)c1C(=O)Nc1ccc(OCc2cccc(C(F)(F)F)c2)c(Cl)c1 [Compound 388],TEM-1,[1],xx
same,OXA-10,[3],xx
same,MIC,[4]; [6],128 µg/mL
same,MIC,[5]; [6],128 µg/mL
O=C(O)c1c(Br)c(Br)c(Br)c(Br)c1C(=O)Nc1ccc(Cl)c(C(F)(F)F)c1 [Compound 89],TEM-1,[1],xx
same,P99,[2],xxx
same,OXA-10,[3],xxx
O=C(O)c1c(F)c(F)c(F)c(F)c1C(=O)Nc1ccc(OCc2ccccc2)nc1 [Compound 363],MIC,[4],">2,000 μg/mL"
same,MIC,[5],">2,000 μg/mL"
CCCCOC(=O)c1ccc(NC(=O)Nc2ccccc2C(=O)O)cc1 [Compound 325],MIC,[4],256 µg/mL
same,MIC,[5],256 µg/mL
CCCCOC(=O)c1ccc(NC(=O)C2CCC(C)CC2C(=O)O)cc1 (stereo not drawn) [Compound 337],MIC,[4],"2,000 μg/mL"
same,MIC,[5],"2,000 μg/mL"
NC(=O)C1=C(C(=O)O)SCCS1 [Compound 120],OXA-10,[3],xx
O=C(Nc1ccc(Cl)c(C(F)(F)F)c1)c1cccc([N+](=O)[O-])c1C(=O)O [Compound 86],TEM-1,[1],xx
CCCCCCCCOc1ccc(NC(=O)c2ccccc2C(=O)O)c[n+]1[O-] [Compound 357],MIC,[4]; [6],> 2000 µg/mL
same,MIC,[5]; [6],> 2000 µg/mL
CCCCCCCCOc1ccc(NC(=O)c2ccccc2C(=O)O)cn1 [Compound 343],MIC,[4]; [6],256 µg/mL
same,MIC,[5]; [6],256 µg/mL
CCCCCCCCOc1ccc(NC(=O)c2c(Cl)c(Cl)c(Cl)c(Cl)c2C(=O)O)c[n+]1[O-] [Compound 358],OXA-10,[3],xxx
CCCCCCCCOc1ccc(NC(=O)c2c(Br)c(Br)c(Br)c(Br)c2C(=O)O)c[n+]1[O-] [Compound 360],TEM-1,[1],xx
same,OXA-10,[3],xxx
COCCOCCOc1ccc(NC(=O)c2c(F)c(F)c(F)c(F)c2C(=O)O)cn1 [Compound 401],MIC,[4],">2,000 μg/mL"
same,MIC,[5],">2,000 μg/mL"
CC(Oc1ccc(NC(=O)c2c(C(=O)O)cccc2[N+](=O)[O-])cc1Cl)c1ccccc1 (stereo not drawn) [Compound 391],MIC,[4],500 µg/mL
same,MIC,[5],500 µg/mL
O=C(O)c1ccncc1C(=O)Nc1ccc(OCc2cccc(OC(F)(F)F)c2)c(Cl)c1 [Compound 424],MIC,[5]; [6],> 250 µg/mL
O=C(O)c1c(Cl)c(Cl)c(Cl)c(Cl)c1C(=O)Nc1cccc(Oc2ccccc2)c1 [Compound 268],TEM-1,[1],xxx
same,P99,[2],xx
CCCCCCCCOc1ccc(N(C)C(=O)c2c(Br)c(Br)c(Br)c(Br)c2C(=O)O)cc1 [Compound 307],OXA-10,[3],xxx
CCCCOC(=O)c1ccc(NC(=O)c2c(F)c(F)c(F)c(F)c2C(=O)O)cc1 [Compound 332],MIC,[4]; [6],2000 µg/mL
same,MIC,[5]; [6],2000 µg/mL

# Source: patent publication US8859620B2, “Phthalanilate compounds and methods of use” (University of Notre Dame du Lac, priority 2009, dated 2014)
